Results: paper PMC4224610 (Chemistry & biology, 2014)

Assays:
Assay type in all cases: biochemical
[1] = target: T1, VhAasS (Vibrio harveyi, UniProt Q00IB3); test: UREA-PAGE and mass spectrometry of ACP loading; conditions: holo-E. coli ACP as acceptor, ATP, MgCl2, pH 8, 37 °C overnight
[2] = target: T2, TTHA0604 (Thermus thermophilus, UniProt Q5SKN9); test: coupled NADH assay at […] nm; conditions: decanoic acid, ATP, MgCl2, pH 8 100 mM Tris
T2 sequence (Q5SKN9 1-541): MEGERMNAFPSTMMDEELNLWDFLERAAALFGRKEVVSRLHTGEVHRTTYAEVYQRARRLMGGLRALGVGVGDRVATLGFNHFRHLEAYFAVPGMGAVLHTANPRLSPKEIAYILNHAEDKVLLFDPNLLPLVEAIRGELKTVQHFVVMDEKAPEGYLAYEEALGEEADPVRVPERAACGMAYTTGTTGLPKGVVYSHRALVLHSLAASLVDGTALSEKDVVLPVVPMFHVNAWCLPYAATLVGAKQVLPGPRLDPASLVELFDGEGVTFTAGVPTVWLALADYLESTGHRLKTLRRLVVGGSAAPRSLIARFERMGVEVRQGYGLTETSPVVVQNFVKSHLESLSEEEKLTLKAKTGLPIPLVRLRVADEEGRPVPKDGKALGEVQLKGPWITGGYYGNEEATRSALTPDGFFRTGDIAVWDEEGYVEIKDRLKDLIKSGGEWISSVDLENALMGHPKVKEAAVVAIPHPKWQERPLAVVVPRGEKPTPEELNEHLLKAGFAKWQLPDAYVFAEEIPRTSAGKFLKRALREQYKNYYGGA

[3] = target: T3, Slr1609 (Synechocystis sp. PCC 6803, UniProt P73004); test: coupled NADH assay at […] nm; conditions: decanoic acid, ATP, MgCl2, pH 8 100 mM Tris
T3 sequence (P73004 1-696): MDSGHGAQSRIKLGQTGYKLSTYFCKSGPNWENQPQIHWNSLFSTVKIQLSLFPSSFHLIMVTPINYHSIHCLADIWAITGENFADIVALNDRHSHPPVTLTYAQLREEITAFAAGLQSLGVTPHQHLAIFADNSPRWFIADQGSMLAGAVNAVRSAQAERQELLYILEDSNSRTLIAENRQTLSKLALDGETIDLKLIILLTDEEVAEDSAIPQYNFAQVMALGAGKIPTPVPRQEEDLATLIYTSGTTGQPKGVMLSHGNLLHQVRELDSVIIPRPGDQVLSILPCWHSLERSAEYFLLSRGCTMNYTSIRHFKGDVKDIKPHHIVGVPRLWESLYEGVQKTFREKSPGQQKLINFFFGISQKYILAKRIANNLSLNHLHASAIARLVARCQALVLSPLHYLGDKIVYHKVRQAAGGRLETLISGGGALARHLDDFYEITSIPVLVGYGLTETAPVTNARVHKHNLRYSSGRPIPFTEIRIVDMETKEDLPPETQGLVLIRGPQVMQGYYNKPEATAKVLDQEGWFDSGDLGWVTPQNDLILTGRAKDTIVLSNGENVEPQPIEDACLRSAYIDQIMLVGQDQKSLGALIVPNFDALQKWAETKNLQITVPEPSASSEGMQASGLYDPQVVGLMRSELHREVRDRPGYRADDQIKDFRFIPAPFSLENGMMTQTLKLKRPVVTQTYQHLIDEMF

[4] = target: T1, VhAasS; test: UREA-PAGE of ACP loading; conditions: holo-E. coli AcpP as acceptor, ATP, MgCl2, DTT, 37 °C overnight

O=C(O)CCCCC(=O)c1ccccc1 [5-benzoylvaleric acid]
UREA-PAGE and mass spectrometry of ACP loading [1]: functionalized fatty acids

CC(C)(COP(=O)(O)OP(=O)(O)OC[C@H]1O[C@@H](n2cnc3c(N)ncnc32)[C@H](O)[C@@H]1OP(=O)(O)O)[C@@H](O)C(=O)NCCC(=O)NCCS [coenzyme A]
coupled NADH assay at 340 nm; DTNB assay of CoA consumption; HPLC-MS [2]: both TTHA0604 and Slr1609 show acyl-CoA ligase activity | coupled NADH assay at 340 nm; DTNB assay of CoA consumption; HPLC-MS [3]: both TTHA0604 and Slr1609 show acyl-CoA ligase activity

CCCCCCCCCC(=O)O [decanoic acid]
UREA-PAGE of ACP loading [4]: VhAasS showed increased loading over Slr1609, TTHA0604, and AAE15
